In the assay the target is GABA-A receptor; anion channel (Homo sapiens) (UniProt P14867+P47870+P18507+P28472+P48169+Q99928+Q9UN88+P34903+O00591+O14764+Q8N1C3+P18505+P78334+P47869+P31644+Q16445). The experiment in a line: Gamma-aminobutyric acid A receptor modulating activity (expressed as biological activity). Format: protein-complex assay.
Consider `CCCC1(CCC)C(=O)OC[C@H]1NS(=O)(=O)N(C)C`, for which the BA was -1.

For `CCCC1(CCC)C(=O)OC[C@H]1NS(=O)(=O)c1ccc(C(F)(F)F)cc1`, the BA was -44.

`CCCC1(CCC)C(=O)OC[C@H]1NS(=O)(=O)c1ccc(OC)cc1`: the BA is -22.

`CCCC1(CCC)C(=O)OC[C@H]1NC(=O)Oc1ccccc1` gave a BA of 330.

`C=CC[C@H]1C(=O)OC[C@H]1NCc1ccccc1` returned a BA of 73.

In the case of `CCCC1(CCC)C(=O)OC[C@H]1NC(=O)OCC`, the BA is 426.

Consider `O=C1C[C@H](NCc2ccccc2)CO1`, for which the BA came out at 0.

As for `O=C1C[C@H](NC(=O)OCc2ccccc2)CO1`, the BA is 47.

Consider `C=CCOC(=O)N[C@@H]1COC(=O)C1(CCC)CCC`, for which the BA came to 765.

In turn, `C=CC[C@@H]1C(=O)OC[C@H]1NCc1ccccc1` had a BA of -1.

The compound `CCCC1(CCC)C(=O)OC[C@H]1NC(=O)c1ccccc1` yielded a BA of 420.

For the compound `CCCC1(CCC)C(=O)OC[C@H]1NC(=O)OC(C)(C)C`, the BA was 46.

Compound `CCCC1(CCC)C(=O)OC[C@H]1NS(=O)(=O)c1ccc(Cl)cc1` displayed a BA of 23.

With `CCCC1(CCC)C(=O)OC[C@H]1NS(=O)(=O)c1cccs1`, the BA was -16.

For `CCCC1(CCC)C(=O)OCC1NC(=O)OCc1ccccc1` (single isomer, unassigned), the BA stood at 279.

In turn, `CCCC1(CCC)C(=O)OC[C@H]1NS(=O)(=O)c1ccc2ccccc2c1` gave a BA of 4.

For the compound `C=CCC1(CC=C)C(=O)OC[C@H]1NCc1ccccc1`, the BA amounted to 115.

Turning to `CCCC1(CCC)C(=O)OC[C@H]1NC(=O)OCc1ccccc1`, the BA came to 104.

Source of the values: ChEMBL document CHEMBL1137847, “3-D-QSAR of N-substituted 4-amino-3,3-dialkyl-2(3H)-furanone GABA receptor modulators using molecular field analysis and receptor surface modelling study” (Bioorg Med Chem Lett, 2004).
